Data published in the CheMixHub viscosity set.
± gives the uncertainty stated by the source.

Assay: xn = mol fraction of the nth substance listed

Cc1cc(C)cc(C)c1 + C1CCCCC1
viscosity [mPa·s], 101 kPa
Conditions | 303 K | 303.15 K | 308.15 K | 313 K | 313.15 K | 318.15 K | 323 K | 323.15 K
x1 = 0.1001 | – | 0.7294 ± 0.0076 | 0.6779 ± 0.0073 | – | 0.6321 ± 0.0071 | 0.591 ± 0.0069 | – | 0.5529 ± 0.0067
x1 = 0.1028 | 0.7231 ± 0.0051 | – | – | 0.6296 ± 0.0045 | – | – | 0.5473 ± 0.004 | –
x1 = 0.2001 | – | 0.6775 ± 0.0073 | 0.6326 ± 0.0071 | – | 0.5925 ± 0.0069 | 0.5562 ± 0.0067 | – | 0.5229 ± 0.0066
x1 = 0.2002 | 0.6616 ± 0.0048 | – | – | 0.5833 ± 0.0043 | – | – | 0.518 ± 0.0039 | –
x1 = 0.299 | 0.6393 ± 0.0047 | – | – | 0.5651 ± 0.0042 | – | – | 0.5048 ± 0.0039 | –
x1 = 0.3 | – | 0.6444 ± 0.0072 | 0.6039 ± 0.0069 | – | 0.5675 ± 0.0068 | 0.5341 ± 0.0066 | – | 0.5036 ± 0.0065
x1 = 0.396 | 0.6187 ± 0.0047 | – | – | 0.5553 ± 0.0042 | – | – | 0.4899 ± 0.0038 | –
x1 = 0.4 | – | 0.6263 ± 0.0071 | 0.5881 ± 0.0069 | – | 0.5539 ± 0.0067 | 0.5231 ± 0.0066 | – | 0.4941 ± 0.0064
x1 = 0.4961 | 0.6085 ± 0.0047 | – | – | 0.5439 ± 0.0042 | – | – | 0.4892 ± 0.0039 | –
x1 = 0.5 | – | 0.6163 ± 0.007 | 0.5791 ± 0.0068 | – | 0.5465 ± 0.0067 | 0.5165 ± 0.0065 | – | 0.4886 ± 0.0064
x1 = 0.5971 | 0.6054 ± 0.0047 | – | – | 0.54 ± 0.0043 | – | – | 0.4863 ± 0.0039 | –
x1 = 0.6 | – | 0.6104 ± 0.007 | 0.5748 ± 0.0068 | – | 0.5431 ± 0.0066 | 0.5143 ± 0.0065 | – | 0.4873 ± 0.0064
x1 = 0.699 | 0.6015 ± 0.0048 | – | – | 0.5379 ± 0.0043 | – | – | 0.4853 ± 0.004 | –
x1 = 0.7 | – | 0.6099 ± 0.007 | 0.5746 ± 0.0068 | – | 0.5428 ± 0.0066 | 0.514 ± 0.0065 | – | 0.4871 ± 0.0064
x1 = 0.7992 | 0.6055 ± 0.0049 | – | – | 0.543 ± 0.0044 | – | – | 0.4858 ± 0.004 | –
x1 = 0.8001 | – | 0.6119 ± 0.007 | 0.5767 ± 0.0068 | – | 0.5451 ± 0.0067 | 0.5165 ± 0.0065 | – | 0.4904 ± 0.0064
x1 = 0.8983 | 0.6081 ± 0.005 | – | – | 0.543 ± 0.0045 | – | – | 0.4893 ± 0.0041 | –
x1 = 0.9 | – | 0.6162 ± 0.007 | 0.5819 ± 0.0068 | – | 0.551 ± 0.0067 | 0.5223 ± 0.0066 | – | 0.494 ± 0.0064

Cc1cc(C)cc(C)c1 + C1CCOC1
298.15 K, 101 kPa
Conditions | viscosity [mPa·s]
x2 = 0.0735 | 0.5973 ± 0.01
x2 = 0.1513 | 0.5921 ± 0.01
x2 = 0.2274 | 0.5863 ± 0.01
x2 = 0.2986 | 0.5793 ± 0.01
x2 = 0.3672 | 0.5728 ± 0.01
x2 = 0.4305 | 0.5659 ± 0.0099
x2 = 0.4912 | 0.5568 ± 0.0098
x2 = 0.6055 | 0.5353 ± 0.0094
x2 = 0.6784 | 0.5237 ± 0.0092
x2 = 0.7516 | 0.512 ± 0.009
x2 = 0.828 | 0.4999 ± 0.0088
x2 = 0.879 | 0.4857 ± 0.0086
x2 = 0.9412 | 0.4724 ± 0.0083

Cc1cc(C)cc(C)c1 + CC(C)=O
307.35 K, 101.33 kPa
Conditions | viscosity [mPa·s]
x2 = 0.1387 | 0.541 ± 0.0096
x2 = 0.4493 | 0.447 ± 0.0088
x2 = 0.5975 | 0.403 ± 0.0084
x2 = 0.6567 | 0.383 ± 0.0083
x2 = 0.7521 | 0.362 ± 0.0081
x2 = 0.9168 | 0.313 ± 0.0077

O=S=O + CC(C)=O
298.15 K, 101 kPa
Conditions | viscosity [mPa·s]
x1 = 0.04866 | 0.3122 ± 0.0083
x1 = 0.1662 | 0.3313 ± 0.0088
x1 = 0.2057 | 0.3365 ± 0.0089
x1 = 0.2466 | 0.3415 ± 0.009
x1 = 0.2858 | 0.343 ± 0.0091
x1 = 0.4007 | 0.3471 ± 0.0092

O=C1CCCN1 + CC(C)CO
Conditions | viscosity [mPa·s]
303.15 K, 101 kPa, x1 = 0.9753 | 10.15 ± 0.76

O=C1CCCN1 + CC(O)CO
Conditions | viscosity [mPa·s]
298.15 K, 101.33 kPa, x1 = 0.06223 | 38.56 ± 0.81
298.15 K, 101.33 kPa, x1 = 0.09322 | 36.35 ± 0.75
298.15 K, 101.33 kPa, x1 = 0.1974 | 30.23 ± 0.63
298.15 K, 101.33 kPa, x1 = 0.2925 | 26.21 ± 0.55
298.15 K, 101.33 kPa, x1 = 0.3956 | 23.01 ± 0.49
298.15 K, 101.33 kPa, x1 = 0.5612 | 19.49 ± 0.43
298.15 K, 101.33 kPa, x1 = 0.5963 | 18.87 ± 0.4
298.15 K, 101.33 kPa, x1 = 0.7003 | 17.36 ± 0.36
298.15 K, 101.33 kPa, x1 = 0.7843 | 16.26 ± 0.34
298.15 K, 101.33 kPa, x1 = 0.8992 | 14.8 ± 0.31
298.15 K, 101.33 kPa, x1 = 0.9581 | 13.93 ± 0.29
308.15 K, 101.33 kPa, x1 = 0.05382 | 23.04 ± 0.48
308.15 K, 101.33 kPa, x1 = 0.1106 | 20.74 ± 0.43
308.15 K, 101.33 kPa, x1 = 0.1986 | 18.2 ± 0.38
308.15 K, 101.33 kPa, x1 = 0.3058 | 15.92 ± 0.33
308.15 K, 101.33 kPa, x1 = 0.3989 | 14.45 ± 0.31
308.15 K, 101.33 kPa, x1 = 0.512 | 12.98 ± 0.27
308.15 K, 101.33 kPa, x1 = 0.5975 | 12.23 ± 0.26
308.15 K, 101.33 kPa, x1 = 0.6998 | 11.39 ± 0.24
308.15 K, 101.33 kPa, x1 = 0.8034 | 10.71 ± 0.22
308.15 K, 101.33 kPa, x1 = 0.8984 | 9.939 ± 0.21
308.15 K, 101.33 kPa, x1 = 0.957 | 9.465 ± 0.2
313.15 K, 101 kPa, x1 = 0.0803 | 16.98 ± 0.15
313.15 K, 101 kPa, x1 = 0.1596 | 15.07 ± 0.13
313.15 K, 101 kPa, x1 = 0.2403 | 13.58 ± 0.11
313.15 K, 101 kPa, x1 = 0.3201 | 12.41 ± 0.1
313.15 K, 101 kPa, x1 = 0.4011 | 11.51 ± 0.093
313.15 K, 101 kPa, x1 = 0.481 | 10.79 ± 0.087
313.15 K, 101 kPa, x1 = 0.5617 | 10.17 ± 0.082
313.15 K, 101 kPa, x1 = 0.6394 | 9.657 ± 0.077
313.15 K, 101 kPa, x1 = 0.7192 | 9.2 ± 0.073
313.15 K, 101 kPa, x1 = 0.7993 | 8.742 ± 0.069
313.15 K, 101 kPa, x1 = 0.8723 | 8.338 ± 0.066
313.15 K, 101 kPa, x1 = 0.9579 | 7.845 ± 0.062
318.15 K, 101.33 kPa, x1 = 0.06032 | 14.2 ± 0.29
318.15 K, 101.33 kPa, x1 = 0.09973 | 13.37 ± 0.28
318.15 K, 101.33 kPa, x1 = 0.1931 | 11.82 ± 0.25
318.15 K, 101.33 kPa, x1 = 0.3054 | 10.43 ± 0.22
318.15 K, 101.33 kPa, x1 = 0.3986 | 9.613 ± 0.2
318.15 K, 101.33 kPa, x1 = 0.5124 | 8.834 ± 0.19
318.15 K, 101.33 kPa, x1 = 0.6012 | 8.369 ± 0.18
318.15 K, 101.33 kPa, x1 = 0.6899 | 7.95 ± 0.17
318.15 K, 101.33 kPa, x1 = 0.7926 | 7.488 ± 0.16
318.15 K, 101.33 kPa, x1 = 0.9004 | 7.031 ± 0.15
318.15 K, 101.33 kPa, x1 = 0.9614 | 6.774 ± 0.14

Cc1cc(C)cc(C)c1 + CCC(C)=O
307.35 K, 101.33 kPa
Conditions | viscosity [mPa·s]
x2 = 0.1256 | 0.549 ± 0.0096
x2 = 0.3266 | 0.5 ± 0.0092
x2 = 0.4175 | 0.479 ± 0.0091
x2 = 0.5581 | 0.443 ± 0.0088
x2 = 0.6213 | 0.428 ± 0.0086
x2 = 0.7133 | 0.409 ± 0.0085
x2 = 0.8019 | 0.389 ± 0.0083
x2 = 0.9035 | 0.368 ± 0.0082

[Cl-].[Cl-].[Cl-].[Cl-].[Sn+4] + CCCC(=O)OC
101 kPa, x1 = 0.335
Conditions | viscosity [mPa·s]
298.15 K | 22.06 ± 0.56
323.15 K | 4.849 ± 0.16

CCCCCC(CC)NC(=O)Nc1ccc(C)c(NC(=O)NC(CC)CCCCC)c1 (centres undefined) + CCCCC
Conditions | viscosity [mPa·s]
293.15 K, 100 kPa, x1 = 0.0002 | 86 ± 6

O=S=O + CCCCCCC
298.15 K, 101 kPa
Conditions | viscosity [mPa·s]
x1 = 0.0265 | 0.3767 ± 0.0099
x1 = 0.0489 | 0.3719 ± 0.0098

CC(C)Cc1ccccc1 + CCCCCCCCCCCC
viscosity [mPa·s], 102 kPa
Conditions | x1 = 0.1006 | x1 = 0.2004 | x1 = 0.2996 | x1 = 0.3998 | x1 = 0.5 | x1 = 0.6001 | x1 = 0.6993 | x1 = 0.7997 | x1 = 0.8998
293.15 K | 1.41 ± 0.02 | 1.35 ± 0.02 | 1.28 ± 0.02 | 1.23 ± 0.02 | 1.17 ± 0.02 | 1.13 ± 0.02 | 1.09 ± 0.02 | 1.05 ± 0.02 | 1.03 ± 0.02
303.15 K | 1.19 ± 0.02 | 1.14 ± 0.02 | 1.09 ± 0.02 | 1.05 ± 0.02 | 1 ± 0.02 | 0.97 ± 0.021 | 0.945 ± 0.021 | 0.915 ± 0.021 | 0.896 ± 0.021
313.15 K | 1.02 ± 0.02 | 0.984 ± 0.021 | 0.949 ± 0.021 | 0.915 ± 0.021 | 0.88 ± 0.021 | 0.848 ± 0.021 | 0.823 ± 0.021 | 0.798 ± 0.021 | 0.781 ± 0.021
323.15 K | 0.892 ± 0.021 | 0.861 ± 0.021 | 0.83 ± 0.021 | 0.8 ± 0.021 | 0.773 ± 0.021 | 0.749 ± 0.021 | 0.726 ± 0.021 | 0.706 ± 0.021 | 0.691 ± 0.021

CCC(C)CC + CCCCCCCCCCCCCCCC
298 K, 101.33 kPa
Conditions | viscosity [mPa·s]
x1 = 0.1071 | 2.635 ± 0.033
x1 = 0.2084 | 2.224 ± 0.028
x1 = 0.3095 | 1.87 ± 0.024
x1 = 0.4069 | 1.554 ± 0.02
x1 = 0.5054 | 1.274 ± 0.017
x1 = 0.6034 | 1.022 ± 0.014
x1 = 0.7044 | 0.7813 ± 0.011
x1 = 0.8037 | 0.5939 ± 0.0086
x1 = 0.902 | 0.4194 ± 0.0065

CCCCCCCCCCCCCCC + CCCCCCCCCCO
100 kPa, x1 = 0.2565
Conditions | viscosity [mPa·s]
298.2 K | 6.68 ± 0.41
308.2 K | 4.73 ± 0.29
318.2 K | 3.47 ± 0.21
